Measurements as given in US11607464B2, “Compositions and methods for the treatment and imaging of cancer” (BOARD OF REGENTS OF THE UNIVERSITY OF NEBRASKA, priority 2018, dated 2023).

Assays:
U-87 MG = assay: Cell survival and LD50 determination (trypan blue exclusion); assay type: cell-based, human; conditions: value (std err)
Experimental: (§1) Compounds 1 or 2 dissolved in DMSO were added to the appropriate cell culture medium in concentrations ranging from 0 μM to 1.5 μM. Higher concentrations were not evaluated as the amount of DMSO required to maintain the drugs' solubility was not compatible with good cell culture conditions. The final concentration of DMSO was maintained at ≤0.5% in all flasks including controls. With each treatment group, duplicate flasks of control cells were grown and harvested alongside treated cells. Each treatment was tested in duplicate in at least two independent experiments (n=4-6 per concentration). Cell numbers were determined after 1 hour, 24 hours, and 48 hours of exposure to drugs using the trypan blue exclusion assay. Aliquots of cell suspension were mixed with a 0.2% solution of trypan blue in PBS (1/1; v/v) and counted in Cellometer® (Nexcelom Bioscience, Lawrence, Mass.). […] The reproductive integrity was also evaluated using a clonogenic survival assay.
(§2) Results Cell survival and LD50 determination for compounds 1 and 2 on four human cancer cell lines—BE(2)-C(neuroblastoma), SK-N-SH cells (neuroblastoma), U-87 MG (glioblastoma), and U137 MG.

U137 MG = assay: as above; assay type: cell-based, human; conditions: value (std err)
Experimental: as §1, §2

BE(2)-C cells = assay: Clonogenic survival (reproductive integrity) with drug without and with XRT; assay type: cell-based, human
Experimental: (§3) Alongside all treatment groups, which included: drug alone (n=4), 4 Gy XRT alone (n=4), and drug+XRT (n=4), quadruplicate flasks of controls cells in medium containing DMSO were grown and harvested under identical culture conditions. Each treatment was tested in at least two independent experiments. The final concentration of DMSO was maintained at 0.5% in all flasks including controls. Cells grown in monolayers (50%-60% confluent) were irradiated at the dose of 4 Gy delivered at the dose rate of 1.36 Gy/minute in a Mark I 68A irradiator (J. L. Shepherd & Associates, San Fernando, Calif.). At designated times after treatment, cells were harvested, their numbers determined and plated at 200 and 500 live cells in duplicate or quadruplicate T25 flasks per each treatment. Cells were left undisturbed for ˜7 days after which time fresh medium was added and colonies were allowed to grow for up to 3 weeks. Colonies were washed with PBS, fixed with methanol, and stained with crystal violet. Briefly, colonies were washed with 5 mL ice-cold PBS, followed by 5 mL PBS/methanol (1:1; v/v), and fixed in 5 mL methanol for 10 minutes. Methanol was removed and flasks were left open to dry for a few hours. Crystal violet (3 mL; 0.25% in 1:1 PBS/methanol) was added to each flask to stain cells. After approximately 10 minutes, the dye was removed, flasks were rinsed with tap water followed by distilled water and were left to dry. Colonies were counted by two independent observers using the ImageJ software.

SK-N-SH = assay: Cell survival and LD50 determination (trypan blue exclusion); assay type: cell-based, human; conditions: value (std err)
Experimental: as §1, with “The” for “Compounds 1 or 2 dissolved in DMSO were added to the appropriate cell culture medium in concentrations ranging from 0 μM to 1.5 μM. Higher concentrations were not evaluated as the amount of DMSO required to maintain the drugs' solubility was not compatible with good cell culture conditions. The”

BE(2)-C = assay: as above; assay type: cell-based, human; conditions: value (std err)
Experimental: as §1, with “The” for “Compounds 1 or 2 dissolved in DMSO were added to the appropriate cell culture medium in concentrations ranging from 0 μM to 1.5 μM. Higher concentrations were not evaluated as the amount of DMSO required to maintain the drugs' solubility was not compatible with good cell culture conditions. The”

[1] = system: BE(2)-C neuroblastoma cells; assay: Cell survival with drug without and with ionizing radiation (XRT); assay type: cell-based, human
Experimental: as §3

[2] = Solubility in common solvents; assay type: physicochemical
[3] = system: human neuroblastoma cell lines; assay: Cytotoxicity of the nonradioactive analogue; assay type: cell-based
Experimental: (§4) Cytotoxicity and radiosensitizing properties of the nonradioactive analogue were determined. Specifically, the cytotoxicity of the nonradioactive analogue N-[5-(3′-iodobenzoyl)-1H-benzimidazol-2-yl]carbamate was measured.

[4] = system: human glioblastoma cells lines; assay: Cytotoxicity of the nonradioactive analogue; assay type: cell-based
Experimental: as §4

For COC(=O)Nc1nc2cc(C(=O)c3cccc(I)c3)ccc2[nH]1 [Compound 2, Methyl N [5-(3′-iodobenzoyl)-1H-benzimidazol-2-yl]carbamate], the LD50 (U-87 MG) was 0.20 (0.06) uM, the LD50 (U137 MG) was 2.62 (1.35) uM and the “clonogenic survival, cytotoxicity” value (BE(2)-C cells; BE(2)-C, 1 μM for 24 hours, without and with 4 Gy, FIGS. 8B and 8C) was “very cytotoxic to the cancer cells, particularly in combination with irradiation”. The “cells surviving, reproductive integrity assay” value (BE(2)-C cells; combined treatment of 4 Gy XRT and drug) was under 0.9%, the “cells surviving, reproductive integrity assay” value (BE(2)-C cells; drug alone) was 7.8% and the LD50 (SK-N-SH) was 1.29 (0.24) uM. For the same compound, the LD50 (BE(2)-C) was 0.02 (0.01) uM, the cancer cells surviving ([1]; 1 micromolar combined with 4 Gy ionizing radiation (XRT)) was 4.8% and the cancer cells killed ([1]; 1 micromolar, 24 hour exposure) was 89.8%. The “surviving fractions, cytotoxicity” value ([1]; SK-N-SH and BE(2)-C cells, 1 μM, without and with XRT, 24 hours after treatment, FIG. 8A) was “very cytotoxic to the cancer cells, particularly in combination with irradiation”, the “solubility in common solvents” value [2] was “quite low solubility” and the cytotoxicity [3] was “low nM range”. For the same compound, the cytotoxicity [4] was “micromolar range”.
